Literature values, collected in US20090233811A1, “Manufacture of Array Chips” (Randox Laboratories Ltd., priority 2005, published 2009).
Values belong to the compound of their own block, whether it stands above or below them.

Conditions: data from Sigma-Aldrich Handbook of Stains, Dyes and Indicators

Solubility in water: 40 mg/mL
SMILES: O=S(=O)([O-])c1ccc2c(/N=N/c3ccccc3)c(O)ccc2c1.[Na+] [Crocein Orange]

Solubility in water: 300 mg/mL
SMILES: O=C([O-])C1=NN(c2ccc(S(=O)(=O)[O-])cc2)C(=O)C1N=Nc1ccc(S(=O)(=O)[O-])cc1.[Na+].[Na+].[Na+] (stereo not drawn) [Tartrazine]

Further lines, the compound ahead of its results:

SMILES: CC(=O)Nc1cc(S(=O)(=O)[O-])cc2cc(S(=O)(=O)[O-])c(/N=N/c3ccccc3)c(O)c12.[Na+].[Na+] [Acid Red 1]
Solubility in water: 60 mg/mL

SMILES: O=S(=O)([O-])c1cc(S(=O)(=O)[O-])c2c(N=Nc3ccc(N=Nc4ccccc4)cc3)c(O)ccc2c1.[Na+].[Na+] [Brilliant Crocein MOO]
Solubility in water: 50 mg/mL

SMILES: O=S(=O)([O-])c1cc(/N=N/c2ccc(O)cc2)ccc1C=Cc1ccc(/N=N/c2ccc(O)cc2)cc1S(=O)(=O)[O-].[Na+].[Na+] [Brilliant Yellow]
Solubility in water: 1 mg/mL

SMILES: O=S(=O)([O-])c1cc(O)c2c(O)c(N=Nc3ccccc3)c(S(=O)(=O)[O-])cc2c1.[Na+].[Na+] [Chromotrope 2R]
Solubility in water: 200 mg/mL
